Reference: patent US20240009269A1 (priority 2020, published 2024)
No end group written: not given here.

Experiments:
[1] = test system: blood-brain barrier; conditions: cited from earlier work
[2] = test system: mouse brain (blood-brain barrier); conditions: mouse, in vivo
Source text: Briefly, male C57BL/6J mice (n=43, 6-8 weeks old, 20-25 g, Jackson Laboratory) were anesthetized with 2% isoflurane. The common carotid artery (CCA) bifurcation was exposed and the occipital artery branching off from the external carotid artery (ECA) was coagulated. The ECA and the pterygopalatine artery (PPA) were temporarily ligated with 4-0 silk sutures. A temporary ligature using a 4-0 suture was placed on the carotid bifurcation and the proximal CCA was permanently ligated. A microcatheter (PE-8-100, SAI Infusion Technologies) was flushed with 2% heparin (1,000 U mL^−1, heparin sodium, Upjohn), inserted into the CCA via a small arteriotomy, and advanced into the internal carotid artery (ICA).
For each animal, 150 μL of solution was infused at a rate of 150 μL minute^−1. […] The brains were harvested immediately after Evans Blue injection, sectioned in brain slicer matrix (Zivic Instruments) to produce 1 mm slabs.
Animal anesthesia was maintained at 1.5-2% during the MRI scan. Mice were placed on a water-heated animal bed equipped with temperature and respiratory control. Respiration was monitored and maintained at 30-60 minutes^−1. All MRI experiments were performed on a Bruker 11.7T MRI scanner. Baseline T2 (TR/TE=2,500/30 ms), susceptibility-weighted imaging (SWI) (TR/TE=378/8 ms), T1 (TR/TE 350/6.7 ms)-weighted, dynamic gradient echo echo-planar imaging (GE-EPI, TR/TE 1250/9.7 ms, field of view (FOV)=14×14 mm, matrix=128×128, acquisition time=60 s and 24 repetitions) and dynamic T1 imaging (TR/TE 2000/3. 5ms, field of view=14×14 mm, acquisition time=8 seconds and 20 repetitions) images of the brain were acquired. The microcatheter was connected to a syringe mounted on an MRI compatible programmable syringe pump (PHD 2000, Harvard Apparatus Inc.). Gadolinium (Gd; Prohance) dissolved in saline at 1:50 was infused intra-arterially at the rate of 150 μL minute^−1 under dynamic GE-EPI MRI for visualization of perfusion territory. […] To quantify BBB status, T1 intensities in cortex, hippocampus and thalamus/hypothalamus were compared between ipsilateral and contralateral hemispheres. T1 hyperintensity was corrected for possible asymmetry using pre-contrast T1 images and normalized as the ratio of ipsilateral to contralateral intensity. Additionally, the area of BBBO (mm^2) was calculated by conversion of T1 images to binary using the Auto Threshold function (plugin v1.17; Maximum Entropy method) [Kapur, J. N., P. K. Sahoo, and A. K. C. Wong, Computer Vision, Graphics, and Image Processing, 1985, 29(3): p. 273-285] in ImageJ. T2-weighted and SWI images were acquired at the same timepoints for detection of brain damage and microhemorrhage. Subsequently, animals were sacrificed for further histological assessment.
To determine the area and region of perfusion territory, we first calculated the contrast enhancement maps at the time where contrast enhancement was at its maximum. As Gd causes negative contrast under T2 imaging, we calculated the contrast enhancement as (SIpre-SIpost)/SIpre, where SI is the signal intensity of an MR image. Histogram was plotted for all pixels in the brain region in a contrast enhancement map and further fitted into two Gaussian distributions, assuming there were two dominant populations for non-contrast enhanced and contrast-enhanced pixels, respectively. The cutoff value to separate the two populations was then determined. The fraction of contrast enhanced areas was calculated by the ratio of the number of pixels, whose values are larger than the cutoff value, to the total number of pixels in the brain. A similar method was used to determine the BBBO territory.

[3] = cited from earlier work
[4] = test system: tissue-engineered dhBMECs microvessels; experiment: BBB opening in tissue-engineered BBB microvessels (500 kDa dextran leakage); assay type: cell-based, human
Protocol: Three-dimensional blood-brain barrier microvessels were fabricated as previously reported (FIGS. 10A and 10B) [Linville, R. M., et al., Biomaterials, 2019. 190-191: p. 24-37] 150 μm diameter and 1 cm long channels were patterned in 7 mg mL^−1 type I collagen (Corning) using nitinol wire (Malin Co.) housed within polydimethylsiloxane (PDMS; Dow Corning). Channels were cross-linked by incubation in 20 mM genipin (Wako Biosciences) for 2 hours to increase cell adhesion. 2dhBMECs were suspended in BBB induction medium at a concentration of 5×10^6 cells mL^−1 and seeded into channels. Microvessels were perfused using BBB induction medium for 24 hours and then switched to BBB maintenance medium. During cell seeding and the first day of perfusion, 10 μM ROCK inhibitor Y27632 (ATCC) was supplemented to increase adhesion. An average shear stress of ˜2 dyn cm^−2 was maintained with a reservoir height difference (Δh) of 3 cm, corresponding to a volumetric flow rate of ˜250 μL h^−1 (FIG. 11D). This shear stress was estimated from the Poiseuille equation: τ=μQ)/2πd3 where μ is the media dynamic viscosity, Q is the volumetric flow rate, and d is the microvessel diameter.
Live-cell imaging was conducted to study dynamic changes in in vitro BBB permeability and microvessel structure. Microvessels were imaged using a 10×objective equipped on an inverted microscope (Nikon Eclipse TiE) maintained at 37° C. and 5% CO2 (FIG. S2C). Epifluorescence illumination was provided by an X-Cite 120LEDBoost (Excelitas Technologies). Phase contrast and fluorescence images were acquired every two minutes with the focal plane set to the microvessel midplane. The entire image collected consists of ten adjacent imaging frames. […] A dextran solute panel comprised of 200 μM Cascade Blue-conjugated 3 kDa dextran (Cat. No. D7132. Thermo Fisher Scientific), 16 μM Alexa Fluor647-conjugated 10 kDa dextran (Cat. No. D22914, Thermo Fisher Scientific), and 1.2 μM fluorescein-conjugated 500 kDa dextran (Cat. No. D7136, Thermo Fisher Scientific) was prepared in BBB maintenance medium. Fluorophores were independently excited and the respective emissions were collected using: Nikon UV-2E/C for 3 kDa dextran (50 ms exposure), Chroma 41008 for 10 kDa dextran (20 ms exposure), and Nikon B-2E/C for 500 kDa dextran (50 ms exposure).
Image processing was performed using ImageJ (NIH) to quantify BBB opening (FIGS. 11A-11D). First, images were cropped to a standard size of 6 mm×0.6 mm. To determine the spatial heterogeneity of BBB permeability, microvessels were sectioned into 10 regions of interest (ROIs), each a 0.6 mm×0.6 mm square (FIG. 11A). For each ROI, the integrated pixel density was plotted over time (FIG. 11A). The permeability (cm s^−1) was calculated using P=(r/2)(1/ΔI)(dI/dt), where r is the vessel radius, ΔI is the increase in fluorescence intensity upon perfusion of the fluorophore, and (dI/dt) is the rate of increase in fluorescence intensity as solute exits into the gel. […] To visually display permeability dynamics, heatmaps were generated from 90 instantaneous permeability values across the 10 ROIs (x-axis) and nine 10-minute periods (y-axis). […] 28(1): p. 41-51 in ImageJ (FIG. 11B). Under baseline conditions, thresholding results in the lumen designated as white (1) and extracellular matrix (ECM) as black (0). […] From binarized images, individual focal leaks were manually counted over time. Leaks emerging from the sides of the image frame were not counted. To quantify the duration of a BBB opening effect, we identified the time at which the last focal leak appeared and termed the focal leak reversibility time constant (τfocal leaks).

[5] = 25, 50, and 100 μM·minute doses

In the case of `OC[C@@H](O)[C@@H](O)[C@H](O)[C@H](O)CO` [mannitol], the “concentration above which BBBO is induced” value [1] is given as over 1.1 M, the “extent of BBBO compared with 3 μM·minute melittin” value [2] is given as “similar” and the solubility limit [3] is given as “around 1.4 M”.

In the case of “GIGAVLKVLTTGLPALISWIKRKRQQ-NH2 [melittin-CONH2]”, the “slope of focal leak reversibility versus dose” value ([4]; compared across four variants) is reported as “highest slope”.

With “RVGALKQTAIPVKSLIWGRQLIGLKT-NH2 [Mel-Scramble, reference compound]” the BBBO [4, 5] was “did not induce BBBO”, the “change in the permeability of 500 kDa dextran following perfusion” value [4, 5] was “no change” and the “focal leaks during or 24 hours after perfusion” value [4, 5] was “no focal leaks were observed”.
